In patent US12533361B2, “Use of polaprezinc in preparing drug for treating castration-resistant prostate cancer” (Jiangnan University, priority 2021, dated 2026):

Assays:
L-DTP (EPI) cells = assay: CCK8 survival of drug-resistant L-DTP (EPI) cells, single and combined drugs; type: cell-based; conditions: drug-resistant L-DTP (EPI) cells produced by continuously adding EPI for 9 days, optimal concentration of Pola
Protocol: (§1) Furthermore, CCK8 is used and drugs are used in drug-resistant L-DTP cells in a single form and combined form separately.
(§2) After the cells adhered to walls, a series of Pola from high to low concentrations were prepared. A most optimal concentration of the Pola was found. […] Cl values of the L-DTP cells were calculated by Calcusyn software.

L-DTP (Enza) cells = assay: CCK8 survival of drug-resistant L-DTP (Enza) cells, single and combined drugs; type: cell-based; conditions: drug-resistant L-DTP (Enza) cells produced by continuously adding Enza for 9 days, optimal concentration of Pola
Protocol: as §1, §2

[1] = test system: mouse model of spontaneous prostate cancer with overexpression of C-MYC (Hi-Myc); assay: Hi-Myc mouse model of prostate cancer, prostate weight and HE staining (Example 4); type: in vivo; conditions: for Average prostate weight of mice: 30 days administration after relapse caused by drug resistance, gavage once every three days, Enza 10 mg/Kg, Pola 20 mg/Kg, combined 10 + 20 mg/Kg, NC group 100.1 mg; for average prostate weight: 10 mg/Kg gavage once every three days
Excerpt: A mouse model of spontaneous prostate cancer with overexpression of C-MYC (Hi-Myc) was established. […] A part of the mice were sacrificed and their prostate cancers were photographed and weighed. […]. The remaining mice were continuously administered according to the above method for 30 days. […]. […] At this time, the mice were divided into different groups immediately to study effects of combined use of drugs.
(§3) The mice were correspondingly gavaged. […] The mice were sacrificed and their prostate cancers were photographed, weighed and subjected to immunohistochemistry.

[2] = test system: mouse model of spontaneous prostate with overexpression of C-MYC (Hi-Myc); assay: Hi-Myc mouse model of prostate cancer, prostate weight (Example 5); type: in vivo; conditions: for Average prostate weight of mice: 30 days administration after relapse, gavage once every three days, Enza 30 mg/Kg, Pola 30 mg/Kg, combined Enza 10 mg/Kg + Pola 20 mg/Kg, NC group 105.4 mg
Excerpt: A mouse model of spontaneous prostate with overexpression of C-MYC (Hi-Myc) was established. […] A part of the mice were sacrificed and their prostate cancers were photographed and weighed. […] The remaining mice were continuously administered according to the above method for 30 days. […] The mice were correspondingly gavaged. […] The mice were sacrificed and their prostate cancers were photographed, weighed and subjected to immunohistochemistry.

PRDX5 = assay: Immunohistochemistry of PRDX5 in prostate tissue sections (Example 4); type: in vivo, mouse; conditions: 30 days administration after relapse, Enza 10 mg/Kg, Pola 20 mg/Kg, combined 10 + 20 mg/Kg, NC group 61.7
Excerpt: as §3

AR = assay: Immunohistochemistry of AR in prostate tissue sections (Example 4); type: in vivo, mouse; conditions: 30 days administration after relapse, Enza 10 mg/Kg, Pola 20 mg/Kg, combined 10 + 20 mg/Kg, NC group 94
Excerpt: as §3

[3] = 10 mg/Kg gavage once every three days for 30 days

CC(C)(c1ccc(OCC(O)CO)cc1)c1ccc(OCC(O)CCl)cc1 (stereo not drawn) [EPI, EPI-001]
inhibition rate (L-DTP (EPI) cells): no obvious inhibitory effect

CNC(=O)c1ccc(N2C(=S)N(c3ccc(C#N)c(C(F)(F)F)c3)C(=O)C2(C)C)cc1F [Enza, enzalutamide]
inhibition rate (L-DTP (Enza) cells): no obvious inhibitory effect | prostate weight compared with the NC group [1, 3]: reduced by half | Average prostate weight of mice [1]: 83.3 mg | average prostate weight ([1]; after 30 days of continuous administration, NC group 85.3 mg): 41.2 mg | average prostate weight ([1]; after 60 days of continuous administration, relapse, NC group 95.6 mg): 78.4 mg | prostate weight compared with the NC group [2, 3]: reduced by half | Average prostate weight of mice [2]: 85.9 mg | Expression amount of PRDX5/% (PRDX5): 93.6%

NCCC(=O)[N-][C@@H](Cc1c[nH]cn1)C(=O)[O-].[Zn+2] [Pola, polaprezinc]
inhibition rate (L-DTP (Enza) cells): no obvious inhibition rate | Average prostate weight of mice [1]: 80.625 mg | effect on drug-resistant CRPC (prostate weight, in words) ([1]; 30 days administration after relapse, compared with single use / between single groups): does not have a significant effect | Average prostate weight of mice [2]: 81.2 mg | Expression amount of AR/% (AR): 70.4% | inhibition rate (L-DTP (EPI) cells): no obvious inhibition rate | Expression amount of PRDX5/% (PRDX5): 74.2%
